Experimental data taken from article PMC10258912, “Synthesis and Molecular Docking of New N-Acyl Hydrazones-Benzimidazole as hCA I and II Inhibitors” (Medicinal Chemistry (Shariqah (United Arab Emirates), 2023).
Where two headings read alike, the source gives them in different places.

Legend:
hCA I = target: T1, hCA I (Homo sapiens, UniProt P00915); assay: hCA I hydratase activity inhibition assay (Wilbur-Anderson method); format: biochemical; conditions: for Ki: Cheng-Prusoff equation
T1 construct: made in house
T1 sequence (P00915 whole entry): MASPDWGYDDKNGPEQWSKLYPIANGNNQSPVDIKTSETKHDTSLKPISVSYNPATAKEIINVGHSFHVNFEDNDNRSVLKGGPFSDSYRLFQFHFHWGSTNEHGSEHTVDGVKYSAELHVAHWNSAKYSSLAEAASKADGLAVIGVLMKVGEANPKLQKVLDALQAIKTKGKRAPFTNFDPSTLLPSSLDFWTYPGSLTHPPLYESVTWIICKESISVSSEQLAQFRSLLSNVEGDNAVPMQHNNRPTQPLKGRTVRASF
Description: (§1) Purification of hCA I and hCA II by affinity chromatography was performed as described in the previous work.
(§2) The Wilbur-Anderson method, as modified by Wilber et al., was used to calculate CA activity. With the help of a bromothymol blue indicator and a measurement of the passing time, the pH changes were calculated using this approach, which causes the hydration of CO2 to release H^+ ions. The equation (to-tc/tc), where to and tc are the times for pH change of the enzymatic and nonenzymatic processes, respectively, was used to compute the enzyme unit (EU).
(§3) While keeping the concentration of the substrate constant, IC50 values for the various compounds were computed. Enzyme activities in the absence of inhibitors in the medium were taken as 100% activity. By assessing the hydratase activity in the presence of various inhibitor concentrations, the activity % values of enzymes were calculated. Utilizing graphs of activity %-[I] for each inhibitor, the IC50 value was determined. The Cheng-Prusoff equation was used to derive inhibition constants using the nonlinear least squares method.

hCA II = target: T2, hCA II (Homo sapiens, UniProt P00918); assay: hCA II hydratase activity inhibition assay (Wilbur-Anderson method); format: biochemical; conditions: for relative inhibitory activity hCA II versus hCA I: comparison of IC50 values on hCA I and hCA II
T2 construct: made in house
Description: as §1, §2, §3

[1] = hydratase activity, constant substrate concentration, read-out: IC50 hCA I

Row | Compound | IC50 (hCA I; [1]) [nM] | relative inhibitory activity hCA II versus hCA I (hCA II) | also measured
1 | CCN(CC)c1ccc(C=NNC(=O)c2ccc(-c3nc4ccccc4[nH]3)cc2)cc1 [Compound 3c, 4-(1H-benzimidazole-2-yl)-N’-(4-(diethylamino)benzylidene)benzohydrazide] |  |  | IC50 (hCA I): 2090 nM
2 | CCOc1ccc(C=NNC(=O)c2ccc(-c3nc4ccccc4[nH]3)cc2)cc1 [Compound 3i, 4-(1H-benzimidazole-2-yl)-N’-(4-ethoxybenzylidene) benzohydrazide] |  | more inhibitory activity on hCA II than hCA I | 
3 | COc1ccc(C=NNC(=O)c2ccc(-c3nc4ccccc4[nH]3)cc2)cc1 [Compound 3k, 4-(1H-benzimidazole-2-yl)-N’-(4-methoxybenzylidene)benzohydrazide] |  | more inhibitory activity on hCA II than hCA I | 
4 | O=C(NN=Cc1ccc(F)cc1)c1ccc(-c2nc3ccccc3[nH]2)cc1 [Compound 3l, 4-(1H-benzimidazole-2-yl)-N’-(4-fluorobenzylidene)benzohydrazide] | 2720 | fairly close inhibitory properties on hCA I and hCA II | IC50 (hCA II; hydratase activity, constant substrate concentration): 2740 nM
5 | O=C(NN=Cc1ccc([N+](=O)[O-])cc1)c1ccc(-c2nc3ccccc3[nH]2)cc1 [Compound 3n, 4-(1H-benzimidazole-2-yl)-N’-(4-nitrobenzylidene) benzohydrazide] |  | more inhibitory activity on hCA II than hCA I | Ki (hCA I): 956 nM
6 | N-(1H-benzimidazole-2-yl)-N’-benzylidenebenzo hydrazide [Compound 3a] |  | more inhibitory activity on hCA II than hCA I | 

Further lines, with some results ahead:

Row | IC50 (hCA I; [1]) [nM] | Compound | relative inhibitory activity hCA II versus hCA I (hCA II) | also measured
7 | 1870 | CC(C)c1ccc(C=NNC(=O)c2ccc(-c3nc4ccccc4[nH]3)cc2)cc1 [Compound 3d, 4-(1H-benzimidazole-2-yl)-N’-(4-isopropylbenzylidene)benzohydrazide] |  | 
8 | 1950 | O=C(NN=Cc1ccc(OCc2ccccc2)cc1)c1ccc(-c2nc3ccccc3[nH]2)cc1 [Compound 3j, 4-(1H-benzimidazole-2-yl)-N’-(4-(benzyloxy)benzylidene)benzohydrazide] |  | 
9 | 1680 | Cc1ccc(C=NNC(=O)c2ccc(-c3nc4ccccc4[nH]3)cc2)cc1 [Compound 3p, 4-(1H-benzimidazole-2-yl)-N’-(4-methylbenzyli-dene) benzohydrazide] |  | type of inhibition, hCA I (hCA I): noncompetitive; Ki (hCA I): 299 ± 10 nM
